Measured values: US11053204B2, “Pyrimidinyloxy benzene derivatives as herbicides” (FMC Corporation, priority 2015, dated 2021)

Experiments:
Assay type in all cases: in vivo
[1] = test system: johnsongrass (Sorghum halepense); test: Test C preemergence, plant response rating
[2] = test system: pigweed, palmer (palmer pigweed, Amaranthus palmeri); test: Test C preemergence, plant response rating
[3] = test system: kochia (Kochia scoparia); test: Test C preemergence, plant response rating
[4] = test system: wild poinsettia (Euphorbia heterophylla); test: Test C preemergence, plant response rating
[5] = test system: windgrass (Apera spica-venti); test: Test C preemergence, plant response rating
[6] = test system: oat, wild (wild oat Avena fatua); test: Test C preemergence, plant response rating
[7] = test system: Canada thistle (Cirsium arvense); test: Test C postemergence, plant response rating; details: for Canada Thistle plant response rating: scale 0 to 100 (0 no effect, 100 complete control)
Outline: (§1)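 After sowing in loam–sand blend or silt loam, pots were sprayed preemergence; separately grown 1- to 4-leaf plants were sprayed postemergence. Following 13 to 15 d under greenhouse conditions, injury was rated visually on a 0 to 100 scale.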

[8] = test system: buckwheat, wild (wild buckwheat, Polygonum convolvulus); test: Test C postemergence, plant response rating; details: for Buckwheat, Wild plant response rating: scale 0 to 100 (0 no effect, 100 complete control)
Outline: as §1

[9] = test system: field poppy (Papaver rhoeas); test: Test C postemergence, plant response rating; details: for Field Poppy plant response rating: scale 0 to 100 (0 no effect, 100 complete control)
Outline: as §1

[10] = test system: field violet (Viola arvensis); test: Test C postemergence, plant response rating; details: for Field Violet plant response rating: scale 0 to 100 (0 no effect, 100 complete control)
Outline: as §1

[11] = test system: geranium, cutleaf (cutleaf geranium, Geranium dissectum); test: Test C postemergence, plant response rating; details: for Geranium, Cutleaf plant response rating: scale 0 to 100 (0 no effect, 100 complete control)
Outline: as §1

[12] = test system: johnsongrass (Sorghum halepense); test: Test C postemergence, plant response rating; details: for Johnsongrass plant response rating: scale 0 to 100 (0 no effect, 100 complete control)
Outline: as §1

[13] = test system: nightshade (eastern black nightshade, Solanum ptycanthum); test: Test C postemergence, plant response rating; details: for Nightshade plant response rating: scale 0 to 100 (0 no effect, 100 complete control)
Outline: as §1

[14] = test system: pigweed, palmer (palmer pigweed, Amaranthus palmeri); test: Test C postemergence, plant response rating; details: for Pigweed, Palmer plant response rating: scale 0 to 100 (0 no effect, 100 complete control)
Outline: as §1

[15] = test system: speedwell (bird's-eye speedwell, Veronica persica); test: Test C postemergence, plant response rating; details: for Speedwell plant response rating: scale 0 to 100 (0 no effect, 100 complete control)
Outline: as §1

[16] = test system: surinam grass (Brachiaria decumbens); test: Test C postemergence, plant response rating
Outline: as §1

[17] = test system: wild mustard (Sinapis arvensis); test: Test C postemergence, plant response rating; details: for Mustard, Wild plant response rating: scale 0 to 100 (0 no effect, 100 complete control)
Outline: as §1

[18] = test system: wild poinsettia (Euphorbia heterophylla); test: Test C postemergence, plant response rating; details: for Poinsettia, Wild plant response rating: scale 0 to 100 (0 no effect, 100 complete control)
Outline: as §1

[19] = test system: windgrass (Apera spica-venti); test: Test C postemergence, plant response rating
Outline: as §1

[20] = 125 g ai/ha, scale 0 to 100 (0 no effect, 100 complete control)

## O=C(CCCCC(F)(F)F)c1c(Br)cccc1Oc1ncc(Cl)cn1 [Compound 82]
[1]; 31 g ai/ha, scale 0 to 100
  Plant response rating, Johnsongrass: 5
[1]; 62 g ai/ha, scale 0 to 100
  Plant response rating, Johnsongrass: 40
[1]; 125 g ai/ha, scale of 0 to 100
  Plant response rating, Johnsongrass: 85
[2]; 31 g ai/ha, scale 0 to 100
  Plant response rating, Pigweed, Palmer: 85
[2]; 62 g ai/ha, scale 0 to 100
  Plant response rating, Pigweed, Palmer: 100
[2]; 125 g ai/ha, scale of 0 to 100
  Plant response rating, Pigweed, Palmer: 100
[3]; 31 g ai/ha, scale 0 to 100
  Plant response rating, Kochia: 50
[3]; 62 g ai/ha, scale 0 to 100
  Plant response rating, Kochia: 90
[3]; 125 g ai/ha, scale of 0 to 100
  Plant response rating, Kochia: 95
[4]; 31 g ai/ha, scale 0 to 100
  Plant response rating, Poinsettia, Wild: 0
[4]; 62 g ai/ha, scale 0 to 100
  Plant response rating, Poinsettia, Wild: 0
[4]; 125 g ai/ha, scale of 0 to 100
  Plant response rating, Poinsettia, Wild: 20
[5]; 31 g ai/ha, scale 0 to 100
  Plant response rating, Windgrass: 30
[5]; 62 g ai/ha, scale 0 to 100
  Plant response rating, Windgrass: 80
[5]; 125 g ai/ha, scale of 0 to 100
  Plant response rating, Windgrass: 90
[6]; 31 g ai/ha, scale 0 to 100
  Plant response rating, Oat, Wild: 0
[6]; 62 g ai/ha, scale 0 to 100
  Plant response rating, Oat, Wild: 5
[6]; 125 g ai/ha, scale of 0 to 100
  Plant response rating, Oat, Wild: 5
[7]; 16 g ai/ha, scale of 0 to 100
  Plant response rating, Canada Thistle: 85
[7]; 31 g ai/ha, scale 0 to 100
  Plant response rating, Canada Thistle: 85
[7]; 62 g ai/ha
  Canada Thistle plant response rating: 85
[7]; 125 g ai/ha
  Canada Thistle plant response rating: 98
[8]; 16 g ai/ha, scale of 0 to 100
  Plant response rating, Buckwheat, Wild: 80
[8]; 31 g ai/ha, scale 0 to 100
  Plant response rating, Buckwheat, Wild: 70
[8]; 62 g ai/ha
  Buckwheat, Wild plant response rating: 100
[8]; 125 g ai/ha
  Buckwheat, Wild plant response rating: 100
[9]; 16 g ai/ha, scale of 0 to 100
  Plant response rating, Field Poppy: 50
[9]; 31 g ai/ha, scale 0 to 100
  Plant response rating, Field Poppy: 85
[9]; 62 g ai/ha
  Field Poppy plant response rating: 100
[9]; 125 g ai/ha
  Field Poppy plant response rating: 100
[10]; 16 g ai/ha, scale of 0 to 100
  Plant response rating, Field Violet: 60
[10]; 31 g ai/ha, scale 0 to 100
  Plant response rating, Field Violet: 70
[10]; 62 g ai/ha
  Field Violet plant response rating: 90
[10]; 125 g ai/ha
  Field Violet plant response rating: 90
[11]; 16 g ai/ha, scale of 0 to 100
  Plant response rating, Geranium, Cutleaf: 30
[11]; 31 g ai/ha, scale 0 to 100
  Plant response rating, Geranium, Cutleaf: 30
[11]; 62 g ai/ha
  Geranium, Cutleaf plant response rating: 40
[11]; 125 g ai/ha
  Geranium, Cutleaf plant response rating: 60
[12]; 16 g ai/ha, scale of 0 to 100
  Plant response rating, Johnsongrass: 5
[12]; 31 g ai/ha, scale 0 to 100
  Plant response rating, Johnsongrass: 20
[12]; 62 g ai/ha
  Johnsongrass plant response rating: 10
[12]; 125 g ai/ha
  Johnsongrass plant response rating: 30
[13]; 16 g ai/ha, scale of 0 to 100
  Plant response rating, Nightshade: 85
[13]; 31 g ai/ha, scale 0 to 100
  Plant response rating, Nightshade: 80
[13]; 62 g ai/ha
  Nightshade plant response rating: 95
[13]; 125 g ai/ha
  Nightshade plant response rating: 100
[14]; 16 g ai/ha, scale of 0 to 100
  Plant response rating, Pigweed, Palmer: 75
[14]; 31 g ai/ha, scale 0 to 100
  Plant response rating, Pigweed, Palmer: 80
[14]; 62 g ai/ha
  Pigweed, Palmer plant response rating: 98
[14]; 125 g ai/ha
  Pigweed, Palmer plant response rating: 98
[15]; 16 g ai/ha, scale of 0 to 100
  Plant response rating, Speedwell: 75
[15]; 31 g ai/ha, scale 0 to 100
  Plant response rating, Speedwell: 85
[15]; 62 g ai/ha
  Speedwell plant response rating: 95
[15]; 125 g ai/ha
  Speedwell plant response rating: 95
[16]; 16 g ai/ha, scale of 0 to 100
  Plant response rating, Surinam Grass: 20
[16]; 31 g ai/ha, scale 0 to 100
  Plant response rating, Surinam Grass: 20
[16]; [20]
  Surinam Grass plant response rating: 25
[17]; 16 g ai/ha, scale of 0 to 100
  Plant response rating, Mustard, Wild: 95
[17]; 31 g ai/ha, scale 0 to 100
  Plant response rating, Mustard, Wild: 95
[17]; 62 g ai/ha
  Mustard, Wild plant response rating: 100
[17]; 125 g ai/ha
  Mustard, Wild plant response rating: 100
[18]; 16 g ai/ha, scale of 0 to 100
  Plant response rating, Poinsettia, Wild: 40
[18]; 31 g ai/ha, scale 0 to 100
  Plant response rating, Poinsettia, Wild: 65
[18]; 62 g ai/ha
  Poinsettia, Wild plant response rating: 85
[18]; 125 g ai/ha
  Poinsettia, Wild plant response rating: 75
[19]; 16 g ai/ha, scale of 0 to 100
  Plant response rating, Windgrass: 10
[19]; 31 g ai/ha, scale 0 to 100
  Plant response rating, Windgrass: 35
[19]; [20]
  Windgrass plant response rating: 35
